In PMC9518264, “Design and synthesis of novel quinazolinone-based derivatives as EGFR inhibitors with antitumor activity” (Journal of Enzyme Inhibition and Medicinal Chemistry, 2022):

Legend:
K-562 = experiment: cells; assay type: cell-based
KM12 = experiment: cells; assay type: cell-based
SF-268 = experiment: cells; assay type: cell-based
LOX IMIV = experiment: cells; assay type: cell-based
M14 = experiment: cells; assay type: cell-based
MDA-MB-435 = experiment: cells; assay type: cell-based
IGROV1 = experiment: cells; assay type: cell-based
OVCAR-8 = experiment: cells; assay type: cell-based
SK-OV-3 = experiment: cells; assay type: cell-based
CAKI-1 = experiment: cells; assay type: cell-based
RXF 393 = experiment: cells; assay type: cell-based
MDA-MB-231/ATCC = experiment: NCI 60 cell line antiproliferative screening (SRB), Breast cancer; assay type: cell-based
HS 578T = experiment: cells; assay type: cell-based
EGFR = EGFR (Homo sapiens, UniProt P00533); experiment: In vitro EGFR kinase inhibitory assay (Kinase-Glo Max luminescence kit); assay type: biochemical
Sequence of EGFR (P00533 669-1210): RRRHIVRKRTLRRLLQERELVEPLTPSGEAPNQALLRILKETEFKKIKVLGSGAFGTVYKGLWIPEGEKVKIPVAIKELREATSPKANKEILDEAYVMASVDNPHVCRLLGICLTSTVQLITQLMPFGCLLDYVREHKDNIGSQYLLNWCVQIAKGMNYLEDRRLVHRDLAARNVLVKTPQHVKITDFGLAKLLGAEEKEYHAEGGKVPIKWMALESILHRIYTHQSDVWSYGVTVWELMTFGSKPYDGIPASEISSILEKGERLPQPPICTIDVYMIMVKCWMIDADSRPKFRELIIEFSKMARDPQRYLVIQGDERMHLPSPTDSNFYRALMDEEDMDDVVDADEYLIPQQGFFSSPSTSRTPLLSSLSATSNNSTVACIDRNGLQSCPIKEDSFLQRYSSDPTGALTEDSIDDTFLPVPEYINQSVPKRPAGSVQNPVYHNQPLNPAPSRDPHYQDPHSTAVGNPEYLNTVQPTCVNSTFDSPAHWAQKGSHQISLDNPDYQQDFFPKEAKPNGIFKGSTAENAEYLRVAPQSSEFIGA

HS 578T cells [1] = experiment: Annexin V/PI dual staining apoptosis assay; assay type: cell-based, human
caspase-3 = experiment: Caspase-3 activation (ELISA) in breast HS 578T cancer cell line; assay type: cell-based, human
Method: Apoptosis is triggered by the activation of caspases, particularly caspase-3, which is an […] caspase responsible for apoptosis. Therefore, the induction of apoptosis by compound 6d was examined by the evaluation of caspase-3 activation in breast HS 578T cancer cell line. The effect of erlotinib as well as untreated cell line was used as positive and negative control, respectively. […] . […]
incubated for 15 minutes in the dark at room temperature. FacsCalibur was used to assess cell fluorescence after incubation (BD Biosciences, USA). The results were represented using dot-plot graphs.
1.1.5. Caspase-3 enzyme assay
The level of the apoptotic marker caspase-3 was measured using Invitrogen ELISA Kit Catalog # KHO1091. The procedure of the used kit was performed according to the manufacturer’s instructions. Let all components to reach room temperature before use. Gently combine all liquid reagents prior to use. Add 100 μL of the standard diluent buffer to the zero standard wells. Add 100 μL of standards and controls or diluted samples to the appropriate microtiter wells. Incubate for 2 h at room temperature. Pipette 100 μL of Caspase-3 (Active) detection antibody solution into each well. […] Read the absorbance of each well at 450 nm. Read the plate within 2 h after adding the stop solution. […] Read the concentrations for unknown samples and controls from the standard curve.

HS 578T cells [2] = experiment: Cell cycle analysis by DNA flow cytometry (propidium iodide)
Method: Flow cytometry was used to analyse the cell cycle using ab139418 propidium iodide flow cytometry kit/BD (Abcam, Cambridge, UK), as directed by the manufacturer guidelines.
The cells were washed twice with ice-cold phosphate buffer saline (PBS) and collected by centrifugation.
(v/v) ethanol, washed with PBS, and re-suspended with 0.1 mg/mL RNase to digest cellular RNA and thus minimize stained RNA in the background. The cells were next stained with PI, a fluorescent molecule that may bind to nucleic acid, at a concentration of 40 mg/mL. In cells, PI attaches to DNA in proportion to its amount. Because the DNA content of cells at different stages of the cell cycle differs, the fluorescence intensity can be used to assess the stage of cell growth. FacsCalibur (BD Biosciences, USA) was used to estimate cell fluorescence, which was then examined using Cell-Quest software (Becton Dickinson).

[3] = 24 h at 2.17 µM, vs untreated control

How did the GI50 (K-562; Homo sapiens, K562) turn out when `O=C(CSc1nc2ccccc2c(=O)n1-c1ccc(Cl)cc1)NN=Cc1ccc(Oc2ccc(Cl)cc2)cc1` [6d, N'-(4–(4-chlorophenoxy)benzylidene)-2-((3–(4-chlorophenyl)-4-oxo-3,4-dihydroquinazolin-2-yl)thio)acetohydrazide] was run?
Its GI50 is 4.15 µM.

What about the inhibition at 10 µM (K-562; Homo sapiens, K562, read-out: growth inhibition % (GI%)) of the same molecule?
The inhibition at 10 µM was 77%.

And the CC50 (K-562; Homo sapiens, K562, K-562, 5 doses, read-out: LC50 (the source's name))?
The CC50 was over 100 µM.

And the TGI (K-562; K-562, 5 doses)?
The TGI was 20.2 µM.

What about the GI50 (KM12; Homo sapiens, KM12) of the same molecule?
Its GI50 is 2.04 µM.

And the inhibition at 10 µM (KM12; Homo sapiens, KM12, read-out: growth inhibition % (GI%))?
Its inhibition at 10 µM is 82.6%.

And the CC50 (KM12; Homo sapiens, KM12, 5 doses, read-out: LC50 (the source's name))?
The CC50 was 26.6 µM.

What about the TGI (KM12; KM12, 5 doses) of the same molecule?
The TGI was 5.0 µM.

And the GI50 (SF-268; Homo sapiens, SF-268)?
The GI50 was 3.85 µM.

What about the inhibition at 10 µM (SF-268; Homo sapiens, SF-268, read-out: growth inhibition % (GI%)) of the same molecule?
The inhibition at 10 µM was 44.2%.

What about the LC50 (SF-268; Homo sapiens, SF-268, 5 doses) of the same molecule?
Its LC50 is over 100 µM.

And the TGI (SF-268; SF-268, 5 doses)?
Its TGI is 23.9 µM.

What about the inhibition at 10 µM (LOX IMIV; Homo sapiens, 60 cell, read-out: growth inhibition % (GI%)) of the same molecule?
Its inhibition at 10 µM is over 100%.

And the GI50 (LOX IMIV; Homo sapiens, LOX IMVI)?
The GI50 was 1.29 µM.

And the CC50 (LOX IMIV; Homo sapiens, LOX IMVI, 5 doses, read-out: LC50 (the source's name))?
The CC50 was 5.2 µM.

And the TGI (LOX IMIV; LOX IMVI, 5 doses)?
Its TGI is 2.59 µM.

What about the GI50 (M14; Homo sapiens, M14) of the same molecule?
The GI50 was 1.58 µM.

What about the inhibition at 10 µM (M14; Homo sapiens, M14, read-out: growth inhibition % (GI%)) of the same molecule?
Its inhibition at 10 µM is over 100%.

And the CC50 (M14; Homo sapiens, M14, 5 doses, read-out: LC50 (the source's name))?
Its CC50 is 7.58 µM.

And the TGI (M14; M14, 5 doses)?
The TGI was 3.47 µM.

And the GI50 (MDA-MB-435; Homo sapiens, MDA-MB-435)?
The GI50 was 1.93 µM.

What about the inhibition at 10 µM (MDA-MB-435; Homo sapiens, MDA-MB-435, read-out: growth inhibition % (GI%)) of the same molecule?
Its inhibition at 10 µM is 75%.

What about the CC50 (MDA-MB-435; Homo sapiens, MDA-MB-435, 5 doses, read-out: LC50 (the source's name)) of the same molecule?
Its CC50 is 13 µM.

And the TGI (MDA-MB-435; MDA-MB-435, 5 doses)?
Its TGI is 4.56 µM.

And the GI50 (IGROV1; Homo sapiens, IGROV-1)?
The GI50 was 1.51 µM.

And the inhibition at 10 µM (IGROV1; Homo sapiens, IGROV-1, read-out: growth inhibition % (GI%))?
Its inhibition at 10 µM is 79.4%.

What about the CC50 (IGROV1; Homo sapiens, IGROV-1, IGROV1, 5 doses, read-out: LC50 (the source's name)) of the same molecule?
Its CC50 is 7.12 µM.

What about the TGI (IGROV1; IGROV1, 5 doses) of the same molecule?
The TGI was 3.28 µM.

And the GI50 (OVCAR-8; Homo sapiens, OVCAR-8)?
Its GI50 is 2.41 µM.

And the inhibition at 10 µM (OVCAR-8; Homo sapiens, OVCAR-8, read-out: growth inhibition % (GI%))?
The inhibition at 10 µM was 86.6%.

What about the CC50 (OVCAR-8; Homo sapiens, OVCAR-8, 5 doses, read-out: LC50 (the source's name)) of the same molecule?
The CC50 was over 100 µM.

And the TGI (OVCAR-8; OVCAR-8, 5 doses)?
Its TGI is 6.56 µM.

And the GI50 (SK-OV-3; Homo sapiens, SK-OV-3)?
The GI50 was 3.26 µM.

What about the inhibition at 10 µM (SK-OV-3; Homo sapiens, SK-OV-3, read-out: growth inhibition % (GI%)) of the same molecule?
The inhibition at 10 µM was 66.2%.

What about the CC50 (SK-OV-3; Homo sapiens, SK-OV-3, 5 doses, read-out: LC50 (the source's name)) of the same molecule?
The CC50 was 49.4 µM.

And the TGI (SK-OV-3; SK-OV-3, 5 doses)?
The TGI was 11.9 µM.

What about the TGI (CAKI-1; CAKI-1, 5 doses) of the same molecule?
Its TGI is 12.0 µM.

And the GI50 (CAKI-1; Homo sapiens, CAKI-1)?
Its GI50 is 3.06 µM.

What about the inhibition at 10 µM (CAKI-1; Homo sapiens, CAKI-1, read-out: growth inhibition % (GI%)) of the same molecule?
The inhibition at 10 µM was 67%.

What about the CC50 (CAKI-1; Homo sapiens, CAKI-1, 5 doses, read-out: LC50 (the source's name)) of the same molecule?
Its CC50 is 35.4 µM.

And the GI50 (RXF 393; Homo sapiens, RXF 393)?
Its GI50 is 1.7 µM.

And the inhibition at 10 µM (RXF 393; Homo sapiens, RXF 393, read-out: growth inhibition % (GI%))?
The inhibition at 10 µM was over 100%.

And the CC50 (RXF 393; Homo sapiens, RXF 393, 5 doses, read-out: LC50 (the source's name))?
Its CC50 is 5.81 µM.

What about the TGI (RXF 393; RXF 393, 5 doses) of the same molecule?
The TGI was 3.14 µM.

And the GI50 (MDA-MB-231/ATCC; Homo sapiens, MDA-MB-231)?
The GI50 was 1.79 µM.

And the inhibition at 10 µM (MDA-MB-231/ATCC; Homo sapiens, MDA-MB-231, read-out: growth inhibition % (GI%))?
The inhibition at 10 µM was 69.6%.

What about the CC50 (MDA-MB-231/ATCC; Homo sapiens, MDA-MB-231/ATCC, 5 doses, read-out: LC50 (the source's name)) of the same molecule?
Its CC50 is 8.51 µM.

What about the TGI (MDA-MB-231/ATCC; MDA-MB-231/ATCC, 5 doses) of the same molecule?
Its TGI is 3.9 µM.

What about the TGI (HS 578T; HS 578T, 5 doses) of the same molecule?
The TGI was 6.36 µM.

And the GI50 (HS 578T; Homo sapiens, Hs-578T)?
Its GI50 is 2.17 µM.

What about the inhibition at 10 µM (HS 578T; Homo sapiens, Hs-578T, read-out: growth inhibition % (GI%)) of the same molecule?
Its inhibition at 10 µM is 78.6%.

And the CC50 (HS 578T; Homo sapiens, HS 578T, 5 doses, read-out: LC50 (the source's name))?
The CC50 was over 100 µM.

And the IC50 (EGFR)?
Its IC50 is 0.069 ± 0.004 µM.

What about the “increase in total apoptosis compared to the control” value (HS 578T cells [1]) of the same molecule?
The value was 16.74 fold.

And the “Apoptosis Early” value (HS 578T cells [1]; IC50 concentration, 24 h)?
Its value is 19.24%.

And the “Apoptosis Late” value (HS 578T cells [1]; IC50 concentration, 24 h)?
The value was 13.45%.

What about the “Apoptosis Total” value (HS 578T cells [1]; IC50 concentration, 24 h) of the same molecule?
The value was 39.02%.

And the Necrosis (HS 578T cells [1]; IC50 concentration, 24 h)?
The Necrosis was 6.33%.

And the “increase of caspase-3 level compared to negative control” value (caspase-3)?
The value was 10.75 fold.

What about the “phase of cell cycle arrest” value (HS 578T cells [2]) of the same molecule?
Its value is “G1/S phase”.

What about the “increase of cell population in the pre-G1 phase” value (HS 578T cells [2]; 24 h at 2.17 µM, vs control) of the same molecule?
The value was 16.74 fold.

What about the “decrease in the cell population at the G2/M phase” value (HS 578T cells [2]; [3]) of the same molecule?
Its value is 52%.

And the “increase of proportion of cells in G0-G1 phase” value (HS 578T cells [2]; [3])?
Its value is 1.12 fold.

What about the “increase of proportion of cells in S phase” value (HS 578T cells [2]; [3]) of the same molecule?
Its value is 1.12 fold.
